From patent US20200147055A1, “COMPOSITIONS AND METHODS FOR TREATING DRY EYE SYNDROME DELIVERING ANTIBIOTIC MACROLIDE” (Eximore Ltd., priority 2017, published 2020)

Assay: In vitro release of Tacrolimus from plug samples into releasing medium buffer (PBS + BAK + Triton) at 37 degrees Celsius, HPLC-MS-MS
Format: physicochemical
Conditions: implants contain approximately 900 micrograms of TAC
Description: In an example of an embodiment of the composition of the present invention, plug samples containing Tacrolimus were prepared. Samples were incubated at 37 degrees Celsius for varying times to determine time effect on Tacrolimus release profile from the sample into a polar solution (PBS).
The solution included the following: 0.01M PBS, 0.005% BAK, and 0.1% TRITON X-100.
Composite weight 3 mg with 30% Tacrolimus.
Development of HPLC-MS-MS Method for Tacrolimus (TCM)
Table 2 provides a list of samples used in the sustained release profile and cumulative sustained release profile illustrated in FIGS. 4 and 5, respectively. Samples 19-1 to 19-8 are Type A, COM TAC 1. Samples 19-9 to 19-16 are Type A, COM TAC 2. Samples 19-17 to 19-24 are Type B, EPO TAC 1. Samples 19-25 to 19-32 are Type B, EPO TAC 2.

For C=CC[C@@H]1/C=C(\C)C[C@H](C)C[C@H](OC)[C@H]2O[C@@](O)(C(=O)C(=O)N3CCCC[C@H]3C(=O)O[C@H](/C(C)=C/[C@@H]3CC[C@@H](O)[C@H](OC)C3)[C@H](C)[C@@H](O)CC1=O)[C@H](C)C[C@@H]2OC [TAC, (3S,4R,5S,8R,9E,12S,14S,15R,16S,18R,19R,26aS)-5,19-dihydroxy-3-{(1E)-1-[(1R,3R,4R)-4-hydroxy-3-methoxycyclohexyl]prop-1-en-2-yl}-14,16-dimethoxy-4,10,12,18-tetramethyl-8-(prop-2-en-1-yl)-5,6,8,11,12,13,14,15,16,17,18,19,24,25,26,26a-hexadecahydro-3H-15,19-epoxypyrido[2,1-c][1,4]oxazacyclotricosine-1,7,20,21(4H,23H)-tetrone], the “TAC average release in vitro” value (first 3 months) was “about 1.7 μg/day”, the “TAC release in vitro” value (first month) was 2 µg/day and the “TAC steady state release in vitro” value (following 2-3 months) was 1.5 µg/day. The “estimated duration of release in vitro” value was 6 months.
